Data reported in patent publication US20090311217A1, “3-SUBSTITUTED-1H-INDOLE COMPOUNDS, THEIR USE AS MTOR KINASE AND PI3 KINASE INHIBITORS, AND THEIR SYNTHESES” (priority 2008, published 2009).
pIC50: −log10 of the molar value. Read-outs that look alike come from different tables or passages of the source.

Experiments:
Type in all cases: biochemical
PI3K-alpha = PI3K-alpha (Homo sapiens, UniProt P42336); experiment: PI3K-alpha fluorescence polarization assay
human TOR = biological target: T1, human TOR (Homo sapiens, UniProt P42345); experiment: mTOR enzyme assay (DELFIA, His6-S6K substrate)
T1 construct: FLAG

PI3K-gamma = PI3K-gamma (Homo sapiens, UniProt P48736); experiment: PI3K-gamma fluorescence polarization assay; conditions: PI3Kγ Avg. IC50
Sequence of PI3K-gamma (P48736 whole entry, species assumed, the tested form may be a part): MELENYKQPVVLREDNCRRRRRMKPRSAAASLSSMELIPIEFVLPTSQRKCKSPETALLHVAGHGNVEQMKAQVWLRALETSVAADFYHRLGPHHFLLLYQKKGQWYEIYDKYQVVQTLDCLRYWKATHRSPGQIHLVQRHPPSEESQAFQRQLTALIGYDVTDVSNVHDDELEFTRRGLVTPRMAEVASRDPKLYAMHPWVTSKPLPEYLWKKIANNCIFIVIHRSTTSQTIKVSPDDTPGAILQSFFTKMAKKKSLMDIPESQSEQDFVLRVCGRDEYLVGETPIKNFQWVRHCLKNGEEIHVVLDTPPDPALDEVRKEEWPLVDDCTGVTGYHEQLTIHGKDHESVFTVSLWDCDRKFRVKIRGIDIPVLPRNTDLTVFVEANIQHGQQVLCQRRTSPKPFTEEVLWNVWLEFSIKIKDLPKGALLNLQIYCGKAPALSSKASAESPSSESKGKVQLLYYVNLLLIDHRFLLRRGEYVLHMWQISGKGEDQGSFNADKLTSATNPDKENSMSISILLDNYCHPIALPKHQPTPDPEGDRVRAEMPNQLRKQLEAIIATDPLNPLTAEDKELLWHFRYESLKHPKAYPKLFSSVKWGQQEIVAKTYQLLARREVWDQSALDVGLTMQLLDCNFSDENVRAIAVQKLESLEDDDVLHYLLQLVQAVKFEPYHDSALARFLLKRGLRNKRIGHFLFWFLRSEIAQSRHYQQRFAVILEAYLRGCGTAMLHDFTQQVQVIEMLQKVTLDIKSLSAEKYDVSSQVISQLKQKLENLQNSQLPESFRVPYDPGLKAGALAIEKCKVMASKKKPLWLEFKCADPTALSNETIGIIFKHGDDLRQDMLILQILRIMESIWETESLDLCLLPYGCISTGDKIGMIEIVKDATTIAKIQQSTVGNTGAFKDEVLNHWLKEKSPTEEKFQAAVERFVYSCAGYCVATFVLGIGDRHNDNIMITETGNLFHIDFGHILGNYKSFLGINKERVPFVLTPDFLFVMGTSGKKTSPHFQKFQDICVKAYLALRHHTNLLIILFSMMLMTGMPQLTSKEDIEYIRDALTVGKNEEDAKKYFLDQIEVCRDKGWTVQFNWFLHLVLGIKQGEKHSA
Procedure, shortened: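 Reactions used 5 ng enzyme with 2.5 μM diC8-PI(4,5)P2 and 25 μM ATP in 5 mM HEPES pH 7, 2.5 mM MgCl2, run 1 h at 25° C. After an EDTA quench (10 mM), 100 nM GST-GRP1 PH domain and 5 nM BODIPY-TMR-IP4 were added and fluorescence polarization was read.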

[1] = read-out: mTOR Kinase Avg. IC50

Sequence of PI3K-alpha (P42336 whole entry, species assumed): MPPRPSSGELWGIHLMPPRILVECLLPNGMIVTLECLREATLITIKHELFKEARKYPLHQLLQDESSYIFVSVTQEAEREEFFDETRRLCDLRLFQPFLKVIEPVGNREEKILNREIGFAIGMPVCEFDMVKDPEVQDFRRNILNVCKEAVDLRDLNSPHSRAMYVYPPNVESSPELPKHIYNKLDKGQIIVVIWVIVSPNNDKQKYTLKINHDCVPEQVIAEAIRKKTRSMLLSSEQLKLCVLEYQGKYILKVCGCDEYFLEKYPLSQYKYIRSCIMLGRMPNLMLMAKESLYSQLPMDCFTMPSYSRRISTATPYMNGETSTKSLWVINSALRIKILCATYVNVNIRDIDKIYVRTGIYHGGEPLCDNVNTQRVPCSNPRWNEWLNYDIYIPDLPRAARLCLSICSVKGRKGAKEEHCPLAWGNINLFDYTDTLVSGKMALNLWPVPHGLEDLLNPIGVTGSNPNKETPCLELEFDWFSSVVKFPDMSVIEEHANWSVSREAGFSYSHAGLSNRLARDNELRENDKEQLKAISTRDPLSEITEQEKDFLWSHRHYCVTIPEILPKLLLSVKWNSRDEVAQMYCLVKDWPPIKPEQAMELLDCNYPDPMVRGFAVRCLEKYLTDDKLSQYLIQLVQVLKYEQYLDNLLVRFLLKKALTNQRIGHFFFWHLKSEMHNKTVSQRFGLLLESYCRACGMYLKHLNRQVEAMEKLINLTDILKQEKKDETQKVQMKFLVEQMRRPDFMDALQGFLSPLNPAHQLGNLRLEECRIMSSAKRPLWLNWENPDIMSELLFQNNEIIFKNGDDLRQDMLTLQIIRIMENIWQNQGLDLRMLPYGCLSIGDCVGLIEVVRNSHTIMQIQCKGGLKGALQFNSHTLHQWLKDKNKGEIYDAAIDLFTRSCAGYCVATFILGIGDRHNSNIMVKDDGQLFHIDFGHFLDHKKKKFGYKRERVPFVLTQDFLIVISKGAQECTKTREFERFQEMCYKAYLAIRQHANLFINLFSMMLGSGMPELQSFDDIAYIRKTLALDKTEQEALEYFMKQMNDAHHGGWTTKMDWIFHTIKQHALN
Sequence of PI3K-alpha (P27986 whole entry partner, species assumed): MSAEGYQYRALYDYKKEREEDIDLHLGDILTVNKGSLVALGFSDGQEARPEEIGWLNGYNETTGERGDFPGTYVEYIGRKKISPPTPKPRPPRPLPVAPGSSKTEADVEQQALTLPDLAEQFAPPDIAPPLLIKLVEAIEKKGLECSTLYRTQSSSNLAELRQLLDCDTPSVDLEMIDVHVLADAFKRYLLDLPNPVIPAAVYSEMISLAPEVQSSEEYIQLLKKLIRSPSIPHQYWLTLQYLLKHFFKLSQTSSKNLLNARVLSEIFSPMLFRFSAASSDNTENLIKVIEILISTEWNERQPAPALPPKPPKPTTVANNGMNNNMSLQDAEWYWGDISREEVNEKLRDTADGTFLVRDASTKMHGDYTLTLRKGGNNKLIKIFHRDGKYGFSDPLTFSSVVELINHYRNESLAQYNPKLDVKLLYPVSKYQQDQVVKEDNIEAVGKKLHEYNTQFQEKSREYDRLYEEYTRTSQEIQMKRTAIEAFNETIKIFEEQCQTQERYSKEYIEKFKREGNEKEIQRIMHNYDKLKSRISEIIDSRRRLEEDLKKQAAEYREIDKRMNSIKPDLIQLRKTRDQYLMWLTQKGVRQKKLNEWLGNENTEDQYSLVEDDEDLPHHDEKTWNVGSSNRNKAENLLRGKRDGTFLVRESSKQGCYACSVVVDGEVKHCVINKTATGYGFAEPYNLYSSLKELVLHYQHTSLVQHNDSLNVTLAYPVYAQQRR

SMILES | pIC50 (PI3K-alpha; read-out: PI3Kα Avg. IC50) | pIC50 (human TOR; [1]) | pIC50 (PI3K-gamma) | pIC50 (PI3K-alpha; PI3Kα Avg. IC50) | pIC50 (human TOR; mTOR Kinase Avg. IC50)
O=C1/C(=C/c2c[nH]c3ccc(OCc4ccccc4)cc23)Oc2cc(O)ccc21 [Example 34, (2Z)-2-{[5-(benzyloxy)-1H-indol-3-yl]methylene}-6-hydroxy-1-benzofuran-3(2H)-one] | < 5.00 | < 4.70 |  |  | 
O=C1C(=Cc2c(-c3ccccn3)[nH]c3ccccc23)Oc2cc(O)cc(O)c21 [Example 72, 4,6-dihydroxy-2-[(2-pyridin-2-yl-1H-indol-3-yl)methylene]-1-benzofuran-3(2H)-one] |  |  |  | 5.44 | 7.67
O=C1C(=Cc2c[nH]c3cc(F)ccc23)Oc2cc(O)cc(O)c21 [Example 176, 2-[(6-fluoro-1H-indol-3-yl)methylene]-4,6-dihydroxy-1-benzofuran-3(2H)-one] | 5.81 | 5.06 |  |  | 
Cc1[nH]c2ccc([N+](=O)[O-])cc2c1C=C1Oc2cc(O)cc(O)c2C1=O [Example 162, 4,6-dihydroxy-2-[(2-methyl-5-nitro-1H-indol-3-yl)methylene]-1-benzofuran-3(2H)-one] | 5.61 | < 4.70 |  |  | 
O=C1C(=Cc2c(-c3ccccc3)n(CCN3CCNCC3)c3ccccc23)Oc2cc(O)cc(O)c21 [Example 160, 4,6-dihydroxy-2-{[2-phenyl-1-(2-piperazin-1-ylethyl)-1H-indol-3-yl]methylene}-1-benzofuran-3(2H)-one] | 5.99 | 6.09 |  |  | 
N#Cc1ccc2c(C=C3Oc4cc(O)cc(O)c4C3=O)c[nH]c2c1 [Example 167, 3-[(4,6-dihydroxy-3-oxo-1-benzofuran-2(3H)-ylidene)methyl]-1H-indole-6-carbonitrile] | 5.17 | 5.28 |  |  | 
O=C1/C(=C/c2c(-c3ccc(F)cc3)[nH]c3ccccc23)Oc2cc(O)cc(O)c21 [Example 46, (2Z)-2-{[2-(4-fluorophenyl)-1H-indol-3-yl]methylene}-4,6-dihydroxy-1-benzofuran-3(2H)-one] |  | 6.91 |  | 5.80 | 
Cc1ccc2c(/C=C3\Oc4cc(O)cc(O)c4C3=O)c[nH]c2c1 [Example 48, (2Z)-4,6-dihydroxy-2-[(6-methyl-1H-indol-3-yl)methylene]-1-benzofuran-3(2H)-one] | 5.47 | < 5.30 |  |  | 
Cc1ccc2[nH]cc(C=C3Oc4cc(O)cc(O)c4C3=O)c2c1 [Example 170, 4,6-dihydroxy-2-[(5-methyl-1H-indol-3-yl)methylene]-1-benzofuran-3(2H)-one] | 5.24 | < 4.70 |  |  | 
O=C1C(=Cc2c(Br)[nH]c3ccccc23)Oc2c1ccc(O)c2O [Example 81, 2-[(2-bromo-1H-indol-3-yl)methylene]-6,7-dihydroxy-1-benzofuran-3(2H)-one] | 6.63 | < 4.70 |  |  | 
Cn1c(-c2ccccc2)c(C=C2Oc3cc(O)cc(O)c3C2=O)c2ccccc21 [Example 15, 4,6-dihydroxy-2-[(1-methyl-2-phenyl-1H-indol-3-yl)methylene]-1-benzofuran-3(2H)-one] |  | 7.05 |  | 5.57 | 
Cn1c(-c2ccccc2)c(C=C2Oc3ccccc3C2=O)c2ccccc21 [Example 3, 2-[(1-methyl-2-phenyl-1H-indol-3-yl)methylene]-1-benzofuran-3(2H)-one] | < 5.00 | < 4.70 |  |  | 
Cn1cc(C=C2Oc3ccccc3C2=O)c2ccccc21 [Example 4, 2-[(1-methyl-1H-indol-3-yl)methylene]-1-benzofuran-3(2H)-one] | 4.91 | < 4.70 |  |  | 
O=C1C(=Cc2c[nH]c3ccc(Br)cc23)Oc2cccc(O)c21 [Example 77, 2-[(5-bromo-1H-indol-3-yl)methylene]-4-hydroxy-1-benzofuran-3(2H)-one] | < 5.00 | 4.76 |  |  | 
O=C1C(=Cc2c[nH]c3ccccc23)Oc2cccc(O)c21 [Example 74, 4-hydroxy-2-(1H-indol-3-ylmethylene)-1-benzofuran-3(2H)-one] | 4.92 | 5.01 |  |  | 
COc1cc(-c2cncnc2)c2[nH]cc(/C=C3\Oc4cc(O)ccc4C3=O)c2c1 [Compound 498, (2Z)-6-hydroxy-2-[(5-methoxy-7-pyrimidin-5-yl-1H-indol-3-yl)methylene]-1-benzofuran-3(2H)-one] | 7.20 |  | 6.41 |  | 
CNC(=O)Nc1ccc2c(c1)C(=O)/C(=C/c1c(C3=CCNCC3)[nH]c3ccc(OC)cc13)O2 [Compound 606, 1-[(2Z)-2-{[5-methoxy-2-(1,2,3,6-tetrahydropyridin-4-yl)-1H-indol-3-yl]methylidene}-3-oxo-2,3-dihydro-1-benzofuran-5-yl]-3-methylurea] | 8.10 |  | 6.95 |  | 
COc1ccc2c(c1)c(/C=C1\Oc3ccc(NC(=O)NCCN)cc3C1=O)cn2CCN1CCN(C)CC1 [Compound 549, 1-(2-aminoethyl)-3-[(2Z)-2-({5-methoxy-1-[2-(4-methylpiperazin-1-yl)ethyl]-1Hindol-3-yl}methylene)-3-oxo-2,3-dihydro-1-benzofuran-5-yl]urea] | 7.87 |  | 5.53 |  | 
CCCc1noc(-c2[nH]c3ccc(OC)cc3c2/C=C2\Oc3ccc(NC(=O)NC)cc3C2=O)n1 [Compound 593, 1-[(2Z)-2-{[5-methoxy-2-(3-propyl-1,2,4-oxadiazol-5-yl)-1H-indol-3-yl]methylene}-3-oxo-2,3-dihydro-1-benzofuran-5-yl]-3-methylurea] | 7.90 |  | 6.11 |  | 
COc1ccc2[nH]cc(/C=C3\Oc4ccc(NC(=O)Nc5cccnc5)cc4C3=O)c2c1 [Compound 484, 1-{(2Z)-2-[(5-methoxy-1H-indol-3-yl)methylene]-3-oxo-2,3-dihydro-1-benzofuran-5-yl}-3-pyridin-3-ylurea] | 5.78 |  | < 5.00 |  | 
CNC(=O)c1ccc2c(c1)C(=O)/C(=C/c1cn(CCCN(C)C)c3ccc(OC)cc13)O2 [Compound 539, (2Z)-2-({1-[3-(dimethylamino)propyl]-5-methoxy-1H-indol-3-yl}methylene)-Nmethyl-3-oxo-2,3-dihydro-1-benzofuran-5-carboxamide] | < 5.00 |  | < 5.00 |  | 
O=C1/C(=C/c2c(-c3ccc(F)cc3)[nH]c3ccccc23)Oc2c(O)cccc21 [Example 68, (2Z)-2-{[2-(4-fluorophenyl)-1H-indol-3-yl]methylene}-7-hydroxy-1-benzofuran-3(2H)-one] |  |  | 6.31 | 6.32 | 

The next lines start with results.

pIC50 (PI3K-alpha; read-out: PI3Kα Avg. IC50) | pIC50 (human TOR; [1]) | pIC50 (PI3K-gamma) | SMILES | pIC50 (PI3K-alpha; PI3Kα Avg. IC50) | pIC50 (human TOR; mTOR Kinase Avg. IC50)
5.48 | 5.57 |  | Cc1c(C=C2Oc3cc(O)cc(O)c3C2=O)c2ccccc2n1CCCC#N [Example 240, 4-{3-[(4,6-dihydroxy-3-oxo-1-benzofuran-2(3H)-ylidene)methyl]-2-methyl-1H-indol-1-yl}butanenitrile] |  | 
5.30 | < 4.70 |  | CCc1cccc2c(C=C3Oc4cc(O)cc(O)c4C3=O)c[nH]c12 [Example 187, 2-[(7-ethyl-1H-indol-3-yl)methylene]-4,6-dihydroxy-1-benzofuran-3(2H)-one] |  | 
5.98 | 6.19 |  | O=C1C(=Cc2c(-c3ccc(F)c(Cl)c3)[nH]c3ccccc23)Oc2cc(O)cc(O)c21 [Example 212, 2-{[2-(3-chloro-4-fluorophenyl)-1H-indol-3-yl]methylene}-4,6-dihydroxy-1-benzofuran-3(2H)-one] |  | 
5.85 | 5.48 |  | Cn1cc(C=C2Oc3cc(O)cc(O)c3C2=O)c2c(Br)cccc21 [Example 253, 2-[(4-bromo-1-methyl-1H-indol-3-yl)methylene]-4,6-dihydroxy-1-benzofuran-3(2H)-one] |  | 
5.35 | 5.68 |  | COC(=O)c1cccc2[nH]cc(C=C3Oc4cc(O)cc(O)c4C3=O)c12 [Example 222, methyl 3-[(4,6-dihydroxy-3-oxo-1-benzofuran-2(3H)-ylidene)methyl]-1H-indole-4-carboxylate] |  | 
5.94 | 6.31 |  | COc1cccc(-c2[nH]c3ccccc3c2C=C2Oc3cc(O)cc(O)c3C2=O)c1 [Example 209, 4,6-dihydroxy-2-{[2-(3-methoxyphenyl)-1H-indol-3-yl]methylene}-1-benzofuran-3(2H)-one] |  | 
6.10 | 5.78 |  | Cc1[nH]c2ccc(F)cc2c1C=C1Oc2cc(O)cc(O)c2C1=O [Example 218, 2-[(5-fluoro-2-methyl-1H-indol-3-yl)methylene]-4,6-dihydroxy-1-benzofuran-3(2H)-one] |  | 
5.62 | < 4.70 |  | COc1cccc2c(C=C3Oc4cc(O)cc(O)c4C3=O)cn(C)c12 [Example 251, 4,6-dihydroxy-2-[(7-methoxy-1-methyl-1H-indol-3-yl)methylene]-1-benzofuran-3(2H)-one] |  | 
5.83 | < 4.70 |  | COC(=O)c1cccc2c(C=C3Oc4cc(O)cc(O)c4C3=O)c[nH]c12 [Example 245, methyl 3-[(4,6-dihydroxy-3-oxo-1-benzofuran-2(3H)-ylidene)methyl]-1H-indole-7-carboxylate] |  | 
5.99 | 6.42 |  | COc1ccc(-c2c(C=C3Oc4cc(O)cc(O)c4C3=O)c3ccccc3n2C)cc1 [Example 195, 4,6-dihydroxy-2-{[2-(4-methoxyphenyl)-1-methyl-1H-indol-3-yl]methylene}-1-benzofuran-3(2H)-one] |  | 
6.02 | 6.52 |  | COc1ccc(-c2[nH]c3ccccc3c2C=C2Oc3cc(O)cc(O)c3C2=O)cc1 [Example 208, 4,6-dihydroxy-2-{[2-(4-methoxyphenyl)-1H-indol-3-yl]methylene}-1-benzofuran-3(2H)-one] |  | 
< 5.00 | 6.55 |  | Cn1cc(C=C2Oc3cc(O)cc(O)c3C2=O)c2c(OCc3ccccc3)cccc21 [Example 256, 2-{[4-(benzyloxy)-1-methyl-1H-indol-3-yl]methylene}-4,6-dihydroxy-1-benzofuran-3(2H)-one] |  | 
